Source: patent publication US12528816B2, “Substituted imidazo [1,2-b] pyridazines and [1, 2, 4] triazolo [ 4,3-b] pyridazines as camkii inhibitors” (Cardurion Pharmaceuticals, INC., priority 2020, dated 2026)

The compounds below were run against T1, human CaMKIIδ (Homo sapiens, UniProt Q13557) (assay: Evaluation of in vitro CaMKII inhibitory activity (binding assay, TR-FRET)). Conditions: human CaMKIIδ, TR-FRET binding assay; class symbols A/B/C; read-out: Act (CaMKII inhibitory activity, binding assay).
T1 construct: Full-length, glutathione-S-transferase(GST)-tagged, human CaMKIIδ was purchased from Carna Biosciences; purchased Carna Biosciences (CaMKIIδ); Wako Pure Chemical Industries (calmodulin) 02-111
In short: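 Inhibitors, in eight concentrations of 4-fold dilution, were incubated 1 h at room temperature with a protein–fluorescent probe premix preformed 30 min on ice, containing calmodulin and terbium anti-GST antibody. Displacement read by TR-FRET in duplicate; IC50 by logistic fitting.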

Structure (SMILES) | IC50 [nM]
C[C@@H](Cn1cnnn1)Oc1cc(-c2ccc3ncn(-c4cccc(C(=O)O)c4)c3n2)ccc1F [compound 62] | 10 to 100
C[C@@H](Cn1cnnn1)Oc1cccc(-c2ccn3ncc(-c4cccc(C(=O)NCCCN5CCOCC5)c4)c3n2)c1 [compound 78] | < 10
C[C@@H](Cn1cnnn1)Oc1cc(-c2ccc3ncc(-c4cccs4)n3c2)ccc1F [compound 17] | 10 to 100
COc1ccnc(-c2cnn3ccc(-c4ccc(F)c(O[C@@H](C)Cn5cnnn5)c4)nc23)c1 [compound 140] | 10 to 100
C[C@@H](Cn1cnnn1)Nc1ccnc(-c2ccc3ncc(-c4cc(F)ccc4C#N)n3n2)c1 [compound 483] | < 10
Cc1nn(C)cc1-c1cnn2ccc(-c3ccc(F)c(O[C@@H](C)Cn4cnnn4)c3)nc12 [compound 142] | 10 to 100
C[C@@H](Cn1cnnn1)Oc1cc(-c2ccc3ncc(-c4cccc[n+]4[O-])n3n2)ccc1F [compound 218] | 10 to 100
CNC(=O)c1ccccc1-c1cnn2ccc(-c3ccc(F)c(O[C@@H](C)Cn4cnnn4)c3)nc12 [compound 34] | > 100
C[C@@H](Cn1cnnn1)Oc1cc(-c2ccn3ncc(-c4ccc(C#N)s4)c3n2)ccc1F [compound 139] | < 10
C[C@@H](Cn1cnnn1)Oc1cccc(-c2ccn3ncc(-c4cccc(C(=O)NCCN5CCCC5=O)c4)c3n2)c1 [compound 113] | < 10
CCN(CC)CCNC(=O)c1cccc(-c2cnn3ccc(-c4cccc(O[C@@H](C)Cn5cnnn5)c4)nc23)c1 [compound 103] | < 10
CNC(=O)c1cccc(-n2cnc3ccc(-c4ccc(F)c(O[C@@H](C)Cn5cnnn5)c4)nc32)c1 [compound 115] | < 10
C[C@@H](Cc1nnn[nH]1)Oc1cccc(-c2ccn3ncc(-c4cccs4)c3n2)c1 [compound 114] | 10 to 100
CC(=O)N1CCC(NC(=O)c2cccc(-c3cnn4ccc(-c5cccc(O[C@@H](C)Cn6cnnn6)c5)nc34)c2)CC1 [compound 75] | < 10
C[C@@H](Cn1cnnn1)Oc1cccc(-c2ccn3ncc(-c4cccc(C(=O)NCCC5CCCCC5)c4)c3n2)c1 [compound 111] | 10 to 100
C[C@@H](Cn1cnnn1)Oc1cc(-c2ccc3ncc(-c4cccc(OCCN5CCC5)c4C#N)n3n2)ccc1F [compound 215] | < 10
[2H]C([2H])([2H])Oc1cc(F)cc(-n2cnc3ccc(-c4cccc(O[C@@H](C)Cn5cnnn5)n4)nc32)c1C#N [Example 474, 4-fluoro-2-(methoxy-d3)-6-[5-(6-{[(2S)-1-(1H-tetrazol-1-yl)propan-2-yl]oxy}pyridin-2-yl)-3H-imidazo[4,5-b]pyridin-3-yl]benzonitrile] | < 10
C[C@@H](Cn1cnnn1)Oc1cc(-c2ccc3ncc(-c4cccc(C#N)c4C#N)n3n2)ccc1F [compound 186] | < 10
CC(C)c1ccc(-c2cnn3ccc(-c4ccc(F)c(O[C@@H](C)Cn5cnnn5)c4)nc23)cc1 [compound 53] | > 100
C[C@@H](Cn1cnnn1)Oc1cccc(-c2ccn3ncc(-c4cccc(C(=O)Nc5cccnc5)c4)c3n2)c1 [compound 84] | < 10
C[C@@H](Cn1cnnn1)Oc1cc(-c2ccn3ncc(-c4cncs4)c3n2)ccc1F [compound 27] | < 10
COc1cc(F)cc(-c2cnc3ccc(-c4cncc(N[C@@H](C)Cn5cnnn5)c4)nn23)c1C#N [compound 482] | < 10
C[C@@H](Cn1cnnn1)Oc1cc(-c2ccn3ncc(-c4ccccc4F)c3n2)ccc1F [compound 52] | < 10
COc1ncccc1-n1cnc2ccc(-c3ccc(F)c(O[C@@H](C)Cn4cnnn4)c3)nc21 [compound 174] | 10 to 100
C[C@@H](Cn1cnnn1)Oc1cc(-c2ccn3ncc(-c4cc(F)ccc4C#N)c3n2)ccc1F [compound 157] | < 10
C[C@@H](Cn1cnnn1)Oc1cccc(-c2ccn3ncc(-c4cccc(C(=O)NCC(C)(C)C)c4)c3n2)c1 [compound 72] | < 10
C[C@@H](Cn1cnnn1)Oc1cccc(-c2ccn3ncc(-c4cccc(C(=O)NCCc5ccncc5)c4)c3n2)c1 [compound 107] | < 10
C[C@@H](Cn1cnnn1)Oc1cccc(-c2ccn3ncc(-c4cccc(C(=O)NS(=O)(=O)C5CC5)c4)c3n2)c1 [compound 165] | < 10

Same assay, conditions: in vitro CaMKII inhibitory activity (binding assay), human CaMKIIδ; read-out: Act

Structure (SMILES) | IC50 [nM]
COc1cc(-c2cnc3ccc(-c4ccc(F)c(O[C@@H](C)Cn5cnnn5)c4)nn23)c(C#N)cn1 [compound 240] | < 10
COC(=O)c1sccc1-c1cnc2ccc(-c3ccc(F)c(O[C@@H](C)Cn4cnnn4)c3)nn12 [compound 238] | 10 to 100
C[C@@H](Cn1cnnn1)Oc1cncc(-c2ccc3ncc(-c4cc(Cl)ccc4C#N)n3n2)n1 [compound 441] | < 10
C[C@@H](Cn1cnnn1)Oc1cccc(-c2ccn3ncc(-c4nccnc4C#N)c3n2)c1 [compound 302] | < 10
C[C@@H](Cn1cnnn1)Oc1cccc(-c2ccc3ncc(-c4ncccc4C#N)n3n2)n1 [compound 458] | > 100
C[C@@H](Cn1cnnn1)Oc1cc(-c2ccc3ncn(-c4cc(F)ccc4C#N)c3n2)ccn1 [compound 343] | < 10
C[C@@H](Cn1cnnn1)Oc1cc(-c2ccc3ncc(-c4cc(F)cn(C)c4=O)n3n2)ccc1F [compound 317] | < 10
C[C@@H](Cn1cnnn1)Oc1cccc(-c2ccc3ncc(-c4cc(F)cn(CC#N)c4=O)n3n2)c1 [compound 360] | < 10
C[C@@H](Cn1cnnn1)Oc1ccnc(-c2ccc3ncn(-c4cc(F)ccc4C#N)c3n2)n1 [compound 346] | 10 to 100
C[C@@H](Cn1cnnn1)Oc1cccc(-c2ccc3ncc(-c4c(F)ccc(F)c4C#N)n3n2)n1 [compound 423] | < 10
COc1ncc(C#N)c(-c2cnc3ccc(-c4cccc(O[C@@H](C)Cn5cnnn5)c4)nn23)n1 [compound 362] | < 10
C[C@@H](Cn1cnnn1)Oc1cc(-c2ccc3ncc(-c4cn(C)nc4C(F)(F)F)n3n2)ccc1F [compound 265] | 10 to 100
C[C@@H](Cn1cnnn1)Oc1cccc(-c2ccc3ncc(-c4[nH]ccc(=O)c4C#N)n3n2)c1 [compound 301, 4-oxo-2-[6-(3-{[(2S)-1-(1H-tetrazol-1-yl)propan-2-yl]oxy}phenyl)imidazo[1,2-b]pyridazin-3-yl]-1,4-dihydropyridine-3-carbonitrile] | 10 to 100
CNC(=O)c1sccc1-c1cnc2ccc(-c3ccc(F)c(O[C@@H](C)Cn4cnnn4)c3)nn12 [compound 245] | 10 to 100
C[C@@H](Cn1cnnn1)Oc1cccc(-c2ccc3ncc(-c4cc[nH]c(=O)c4C#N)n3n2)c1 [compound 272, 2-oxo-4-[6-(3-{[(2S)-1-(1H-tetrazol-1-yl)propan-2-yl]oxy}phenyl)imidazo[1,2-b]pyridazin-3-yl]-1,2-dihydropyridine-3-carbonitrile] | < 10
C[C@@H](Cn1cnnn1)Oc1cccc(-c2ccc3ncc(-c4nc(N(C)C)ccc4C#N)n3n2)c1 [compound 350] | 10 to 100

Structure (SMILES) | IC50 [nM]
C[C@@H](Cn1cnnn1)Oc1cncc(-c2ccc3ncc(-c4cc(F)ccc4C#N)n3n2)n1 [Example 326, 4-fluoro-2-[6-(6-{[(2S)-1-(1H-tetrazol-1-yl)propan-2-yl]oxy}pyrazin-2-yl)imidazo[1,2-b]pyridazin-3-yl]benzonitrile] | < 10
C[C@@H](Cn1cnnn1)Oc1cccc(-c2ccc3ncc(-c4nccc(OCC(F)(F)F)c4C#N)n3n2)c1 [compound 344] | < 10
COc1cc(-c2cnc3ccc(-c4cccc(O[C@@H](C)Cn5cnnn5)n4)nn23)c(C#N)cn1 [compound 463] | < 10
C[C@@H](Cn1cnnn1)Oc1nccc(-c2ccc3ncn(-c4cc(F)ccc4C#N)c3n2)n1 [Example 342, 4-fluoro-2-[5-(2-{[(2S)-1-(1H-tetrazol-1-yl)propan-2-yl]oxy}pyrimidin-4-yl)-3H-imidazo[4,5-b]pyridin-3-yl]benzonitrile] | 10 to 100
COc1nccc(-c2cnc3ccc(-c4cccc(O[C@@H](C)Cn5cnnn5)c4)nn23)c1C#N [compound 400] | < 10
C[C@@H](Cn1cnnn1)Oc1cc(-c2ccc3ncc(-c4nccc(OCF)c4C#N)n3n2)ccc1F [Example 435, 2-[6-(4-fluoro-3-{[(2S)-1-(1H-tetrazol-1-yl)propan-2-yl]oxy}phenyl)imidazo[1,2-b]pyridazin-3-yl]-4-(fluoromethoxy)pyridine-3-carbonitrile] | < 10
C[C@@H](Cn1cnnn1)Oc1cccc(-c2ccc3ncc(-c4cnccc4C#N)n3n2)n1 [compound 415] | < 10
C[C@@H](Cn1cnnn1)Oc1cccc(-c2ccc3ncc(-c4cccc(C(F)F)c4C#N)n3n2)c1 [Example 413, 2-(difluoromethyl)-6-[6-(3-{[(2S)-1-(1H-tetrazol-1-yl)propan-2-yl]oxy}phenyl)imidazo[1,2-b]pyridazin-3-yl]benzonitrile] | < 10
C[C@@H](Cn1cnnn1)Oc1cccc(-c2ccc3ncc(-c4nccc(N5CCC5)c4C#N)n3n2)c1 [compound 370] | 10 to 100
C[C@@H](Cn1cnnn1)Oc1cccc(-c2ccc3ncc(-c4ncnc(N(C)C)c4C#N)n3n2)c1 [compound 372] | 10 to 100
C[C@@H](Cn1cnnn1)Oc1cccc(-c2ccc3ncc(-c4ccncc4C#N)n3n2)c1 [compound 279, 4-[6-(3-{[(2S)-1-(1H-tetrazol-1-yl)propan-2-yl]oxy}phenyl)imidazo[1,2-b]pyridazin-3-yl]pyridine-3-carbonitrile] | < 10
C[C@@H](Cn1cnnn1)Oc1cccc(-c2ccc3ncc(-c4ccccc4C=O)n3n2)c1 [compound 303] | < 10
C[C@@H](Cn1cnnn1)Oc1cccc(-c2ccc3ncn(-c4cccc(OC(F)F)c4C#N)c3n2)n1 [compound 398] | 10 to 100
C[C@@H](Cn1cnnn1)Oc1cccc(-c2ccc3ncc(-c4cc(F)cnc4OCC(F)F)n3n2)c1 [compound 336] | < 10
COc1ccc(-c2cnc3ccc(-c4ccc(F)c(O[C@@H](C)Cn5cnnn5)c4)nn23)c(C#N)n1 [compound 249] | < 10
